{"source": "patent US12544375B2", "about": "“Small molecule therapeutic for parkinson's disease paired with a biomarker of therapeutic activity” (The Board of Trustees of the Leland Stanford Junior …, priority 2019, dated 2026)", "key": {"[1]": {"tested_on": "LRRK2^G2019S, PINK1 null and SNCA^A53T flies", "test": "Adult fly climbing ability (negative geotaxis)", "assay_type": "in vivo", "conditions": "2.5 μM in food, two models (LRRK2 and PINK1)", "protocol": "FIG. 4A-FIG. 4I. Miro1 Reducer Rescues PD-Relevant Phenotypes in Flies. For all panels, when Miro1 Reducer was not added, the same volume of the solvent, DMSO, was supplied in fly food. Drug administration (2.5 μM) was started from day 2. (FIG. 4A-FIG. 4C) Survival curves of LRRK2^G2019S (FIG. 4A), PINK1^B9 (imprecise excision, null) and PINK1^RV (the precise excision control for PINK1^B9) (FIG. 4B), and SNCA^A53T flies (FIG. 4C). n=58-150. (FIG. 4D) Dopaminergic (DA) neurons in the PPM1/2 clusters of 22-day old flies were immunostained with anti-TH. (FIG. 4D-FIG. 4F) Quantification of the DA neuron number in the PPL1 or PPM1/2 cluster (total number divided by 2 for each brain). (FIG. 4D) LRRK2^G2019S. n=6-8 brains. […]\nFly climbing (negative geotaxis) ability was evaluated as previously described. Briefly, adult flies were gently tapped to the base of a modified 25 ml climbing tube and their climbing progress was recorded after 45 sec. Three populations of flies were assessed, and for each population, flies were examined 3 times per experiment. The recorded values were used to calculate Average Performance Index (PI). […] If the fly flew away, it was recorded as “1”, and if it was unable to fly, it was recorded as “0”. Wing posture was assessed by viewing each fly through a vial under a dissecting microscope. […] A normal wing posture or thorax (Course et al., 2018) was scored as “1”, otherwise “0”. […]"}, "fibroblasts": {"tested_on": "fibroblasts", "test": "Cytotoxicity: mitochondrial matrix and cytosolic proteins in fibroblasts with CCCP", "assay_type": "cell-based, human", "conditions": "combined with CCCP treatment for 6 hrs", "protocol": "FIG. 2A-FIG. 2F. Miro1 Reducer Eliminates the Miro1 Defect in PD Fibroblasts. (FIG. 2A) Chemical properties of Miro1 Reducer. (FIG. 2B) Wild-type flies (w^1118) were fed with DMSO alone (0 μM Miro1 Reducer) or Miro1 Reducer in DMSO at 250 μM for 7 days, and lysed and blotted as indicated. The band intensities are normalized to those of Tubulin from the same blots. n=4. (FIG. 2C-FIG. 2E) Fibroblasts were treated, lysed, and blotted as indicated. (FIG. 2C) Band intensities are normalized to those of GAPDH from the same blots and compared to “Healthy-1, no treatment” except otherwise indicated. n=4. (FIG. 2D) Band intensities are normalized to those of ATP5β from the same blots and expressed as a percentage of the mean of “0 μM Miro1 Reducer with CCCP”. Mean±S.E.M is shown. n=3. (FIG. 2E) Band intensities are normalized to those of GAPDH from the same blots and compared to “Healthy-1, no CCCP, no MG132” except otherwise indicated. n=4. (FIG. 2F) Healthy-1 and PD-2 fibroblasts were transfected as indicated, and immunostained with anti-Myc (Miro1, green) and stained with Dapi (blue). The Miro1 intensity is normalized to that of mito-dsRed from the same cell and quantified across 37-62 cells from 5 fields each transfection, 3 independent transfections. Scale bars: 50 μm. For (FIG. 2C-FIG. 2F), both CCCP and Miro1 Reducer were dissolved in DMSO. […]"}}, "data": [{"smiles": "O=C(Nc1ccc(Nc2cc(-n3ccnc3)ncn2)cc1)Nc1cccc(F)c1", "note": "[Miro1 Reducer]", "values": [{"measurement": "locomotor decline (climbing ability)", "setting": "[1]", "result": "significantly rescued"}, {"measurement": "concentrations impacting multiple mitochondrial matrix and cytosolic proteins, indicating cytotoxicity", "setting": "fibroblasts", "result": "> 25", "unit": "µM"}]}]}
